Format in all cases: functional
One assay has as its system Mycobacterium avium. Kind of assay: Antibacterial activity against Mycobacterium avium Flamingo after 18 hrs by agar plate dilution method.
Assay [1] has as its system Mycobacterium intracellulare. Kind of assay: Antibacterial activity against Mycobacterium intracellular ATCC 15984 after 18 hrs by agar plate dilution method. Particulars: ATCC 15984, 18 h.
The subject of assay [2] is Mycolicibacterium fortuitum. Kind of assay: Antibacterial activity against Mycobacterium fortuitum NIHJ1615 after 18 hrs by agar plate dilution method.
Assay [3] has as its system Mycolicibacterium smegmatis. Kind of assay: Antibacterial activity against Mycobacterium smegmatis Takeo after 18 hrs by agar plate dilution method.
Assay [4] relates to Mycobacterium tuberculosis. Kind of assay: Antibacterial activity against Mycobacterium tuberculosis H37Rv after 18 hrs by agar plate dilution method.
Another assay relates to Mycolicibacterium aurum. Description: Antibacterial activity against Mycobacterium aurum after 18 hrs by agar plate dilution method.
In assay [5] the test system is Staphylococcus aureus. Description: Antibacterial activity against methicillin-resistant Staphylococcus aureus Mu50 after 18 hrs by agar plate dilution method. Particulars: Mu50, 18 h.
The subject of assay [6] is Enterococcus faecalis. Description: Antibacterial activity against vancomycin-resistant Enterococcus faecalis NCTC-12201 after 18 hrs by agar plate dilution method.
Assay [7] concerns Enterococcus faecalis. Description: Antibacterial activity against vancomycin-resistant Enterococcus faecalis NCTC-12203 after 18 hrs by agar plate dilution method.
Assay [8] concerns Staphylococcus aureus. Description: Antibacterial activity against Staphylococcus aureus FDA209P after 18 hrs by agar plate dilution method.
The test system of assay [9] is Staphylococcus aureus. Kind of assay: Antibacterial activity against Staphylococcus aureus Smith after 18 hrs by agar plate dilution method.
A further assay deals with Pseudomonas aeruginosa. Description: Antibacterial activity against Pseudomonas aeruginosa 46001 by agar plate dilution method.
Assay [10] has as its system Staphylococcus aureus. Description: Antibacterial activity against methicillin-resistant Staphylococcus aureus after 18 hrs by agar plate dilution method.
For assay [11], the system named is Staphylococcus aureus. Kind of assay: Antibacterial activity against vancomycin-resistant Staphylococcus aureus 70 after 18 hrs by agar plate dilution method.
The subject of assay [12] is Staphylococcus aureus. Description: Antibacterial activity against methicillin-resistant Staphylococcus aureus 92-1191 after 18 hrs by agar plate dilution method.
Assay [13] relates to Staphylococcus aureus. Description: Antibacterial activity against Linezolid and methicillin-resistant Staphylococcus aureus 06 after 18 hrs by agar plate dilution method.
The subject of assay [14] is Staphylococcus aureus. Kind of assay: Antibacterial activity against Staphylococcus aureus macrolide-resistance after 18 hrs by agar plate dilution method.
The test system of the next assay is Escherichia coli. Description: Antibacterial activity against Escherichia coli NIHJ JC2 by agar plate dilution method.
The test system of the next assay is Klebsiella pneumoniae. Description: Antibacterial activity against Klebsiella pneumoniae NCTN9632 by agar plate dilution method.
The test system of the next assay is Proteus mirabilis. Description: Antibacterial activity against Proteus mirabilis IFO3849 by agar plate dilution method.

In brackets after ≈: the same amount, converted by molar mass.

Turning to `C=CCN(C)CCCCCCCCOc1ccc(C(=O)c2ccc(Cl)cc2)c(O)c1`, the minimum inhibitory concentration (MIC) against Mycobacterium avium stood at 6.3 µg/mL (≈ 14.7 µM); in [1], 6.3 µg/mL (≈ 14.7 µM); in [2], 12.5 µg/mL (≈ 29.1 µM); in assay [3], 12.5 µg/mL (≈ 29.1 µM); in [4], 1.5 µg/mL (≈ 3.49 µM); in the assay with Mycolicibacterium aurum, 6.3 µg/mL (≈ 14.7 µM). Moreover, the MIC with Staphylococcus aureus [5], in the assay on Enterococcus faecalis [6], against Enterococcus faecalis [7], against Staphylococcus aureus [8] and in the assay on Staphylococcus aureus [9] was more than 12.5 µg/mL in each case.
Take `CN(CCCOC/C=C/COc1ccc(C(=O)c2ccc(Cl)cc2)c(O)c1)CCc1ccc(F)cc1`: the MIC in assay [4] was 12.5 µg/mL (≈ 24.4 µM); in the assay on Pseudomonas aeruginosa, more than 128 µg/mL; against Staphylococcus aureus [10], 4 µg/mL (≈ 7.81 µM); against Staphylococcus aureus [11], 4 µg/mL (≈ 7.81 µM); against Staphylococcus aureus [12], 4 µg/mL (≈ 7.81 µM); in the assay on Staphylococcus aureus [5] it was 8 µg/mL (≈ 15.6 µM). Besides, the minimum inhibitory concentration (MIC) in the assay with Staphylococcus aureus [13] came out at 8 µg/mL (≈ 15.6 µM); against Staphylococcus aureus [14] it was 4 µg/mL (≈ 7.81 µM); against Enterococcus faecalis [6] it was 8 µg/mL (≈ 15.6 µM); against Enterococcus faecalis [7], 2 µg/mL (≈ 3.91 µM); in the assay on Staphylococcus aureus [8], 4 µg/mL (≈ 7.81 µM); in the assay with Staphylococcus aureus [9] it was 8 µg/mL (≈ 15.6 µM). The MIC in the assay with Escherichia coli, against Klebsiella pneumoniae and in the assay on Proteus mirabilis was more than 128 µg/mL each time.
For `NNC(=O)c1ccncc1` [ISONIAZID], the minimum inhibitory concentration (MIC) against Mycobacterium avium was more than 25 µg/mL; in [1], 12.5 µg/mL (≈ 91.1 µM); in assay [2] it was 6.3 µg/mL (≈ 45.9 µM); in assay [3] it was 12.5 µg/mL (≈ 91.1 µM); in assay [4] it was 0.1 µg/mL (≈ 0.729 µM); against Mycolicibacterium aurum it was 6.3 µg/mL (≈ 45.9 µM).
Take `CC(=O)NC[C@H]1CN(c2ccc(N3CCOCC3)c(F)c2)C(=O)O1` [LINEZOLID]: the minimum inhibitory concentration (MIC) is more than 128 µg/mL against Pseudomonas aeruginosa; 32 µg/mL (≈ 94.9 µM) against Staphylococcus aureus [13]; 128 µg/mL (≈ 379 µM) against Escherichia coli; more than 128 µg/mL in the assay with Klebsiella pneumoniae; 128 µg/mL (≈ 379 µM) in the assay on Proteus mirabilis.
In the case of `CO[C@H]1/C=C/O[C@@]2(C)Oc3c(C)c(O)c4c(O)c(c(/C=N/N5CCN(C)CC5)c(O)c4c3C2=O)NC(=O)/C(C)=C\C=C\[C@H](C)[C@H](O)[C@@H](C)[C@@H](O)[C@@H](C)[C@H](OC(C)=O)[C@@H]1C` [RIFAMPIN], the MIC was 3.1 µg/mL (≈ 3.77 µM) in the assay with Mycobacterium avium; 3.1 µg/mL (≈ 3.77 µM) in assay [1]; more than 25 µg/mL in assay [2]; more than 25 µg/mL in [3]; 0.2 µg/mL (≈ 0.243 µM) in assay [4]; 0.78 µg/mL (≈ 0.948 µM) in the assay on Mycolicibacterium aurum.
For `CN[C@H](CC(C)C)C(=O)N[C@H]1C(=O)N[C@@H](CC(N)=O)C(=O)N[C@H]2C(=O)N[C@H]3C(=O)N[C@H](C(=O)N[C@H](C(=O)O)c4cc(O)cc(O)c4-c4cc3ccc4O)[C@H](O)c3ccc(c(Cl)c3)Oc3cc2cc(c3O[C@@H]2O[C@H](CO)[C@@H](O)[C@H](O)[C@H]2O[C@H]2C[C@](C)(N)[C@H](O)[C@H](C)O2)Oc2ccc(cc2Cl)[C@H]1O` [VANCOMYCIN], the minimal inhibitory concentration (MIC) against Pseudomonas aeruginosa, against Enterococcus faecalis [6], in the assay with Enterococcus faecalis [7], against Escherichia coli, against Klebsiella pneumoniae and against Proteus mirabilis was more than 128 µg/mL throughout.

What is called MIC is the lowest concentration that inhibits growth of the organism. Lower therefore signals greater potency.

Values taken from ChEMBL document CHEMBL1148727, “Discovery of 1,4-dihydroxy-2-naphthoate [corrected] prenyltransferase inhibitors: new drug leads for multidrug-resistant gram-positive pathogens” (2007).
